PubChem BioAssay AID222 (DTP/NCI, 2004)
Several values for one entry are separate records, joined by “and”; a condition that tells them apart may be missing. Identical values can stand only once. Inconclusive results and toxic doses are left out. The calls were made as follows: active = survival T/C of 150% or more; inactive = T/C below 125% in these data.

Tested on: C57BL/6 mice, intracerebral ependymoblastoma, median survival T/C
Test: NCI In Vivo Anticancer Drug Screen. Data for tumor model Ependymoblastoma (intracerebral) in C57BL/6 mice
Details: endpoint: median survival time, higher = longer survival
Procedure: The antitumor activity of compounds was measured in mice bearing transplantable tumors. Survival or tumor size were measured and the results are expressed as the measurement made in the treated group (T) divided by the measurement made in the vehicle treated control group (C). The tumor model used in this assay is Ependymoblastoma (intracerebral) in C57BL/6 mice

[1] = dose: 8.0 mg/kg/injection, schedule: Q01DX005 (ip), vehicle: saline
[2] = dose: 128.0 mg/kg/injection, schedule: Q01DX001 (ip), vehicle: Klucel (hydroxypropylcellulose) (HPC)

Measured: T/C

OC(CBr)C(O)C(O)C(O)CBr (stereo not given)
inactive: [1] 101 % of control | dose: 12.0 mg/kg/injection, schedule: Q01DX005 (ip), vehicle: saline 89 % of control | dose: 18.0 mg/kg/injection, schedule: Q01DX005 (ip), vehicle: saline 100 % of control | dose: 27.0 mg/kg/injection, schedule: Q01DX005 (ip), vehicle: saline 95 % of control | dose: 32.0 mg/kg/injection, schedule: Q01DX001 (ip), vehicle: Klucel (hydroxypropylcellulose) (HPC) 108 % of control | dose: 32.0 mg/kg/injection, schedule: Q01DX001 (oral), vehicle: Klucel (hydroxypropylcellulose) (HPC) 96 % of control | dose: 32.0 mg/kg/injection, schedule: Q01DX005 (oral), vehicle: Klucel (hydroxypropylcellulose) (HPC) 97 % of control | dose: 50.0 mg/kg/injection, schedule: Q01DX005 (ip), vehicle: saline 107 % of control | dose: 60.0 mg/kg/injection, schedule: Q01DX005 (ip), vehicle: saline 116 % of control | dose: 64.0 mg/kg/injection, schedule: Q01DX001 (ip), vehicle: Klucel (hydroxypropylcellulose) (HPC) 111 % of control | dose: 64.0 mg/kg/injection, schedule: Q01DX001 (oral), vehicle: Klucel (hydroxypropylcellulose) (HPC) 99 % of control | dose: 64.0 mg/kg/injection, schedule: Q01DX005 (oral), vehicle: Klucel (hydroxypropylcellulose) (HPC) 102 % of control | dose: 100.0 mg/kg/injection, schedule: Q01DX001 (ip), vehicle: Klucel (hydroxypropylcellulose) (HPC) 103 % of control | dose: 100.0 mg/kg/injection, schedule: Q01DX005 (ip), vehicle: saline 92 % of control and 120 % of control | dose: 100.0 mg/kg/injection, schedule: Q#A X002 (ip), vehicle: Klucel (hydroxypropylcellulose) (HPC) 102 % of control | [2] 109 % of control | dose: 128.0 mg/kg/injection, schedule: Q01DX001 (oral), vehicle: Klucel (hydroxypropylcellulose) (HPC) 100 % of control | dose: 200.0 mg/kg/injection, schedule: Q01DX001 (ip), vehicle: Klucel (hydroxypropylcellulose) (HPC) 102 % of control and 112 % of control and 115 % of control | dose: 200.0 mg/kg/injection, schedule: Q01DX005 (ip), vehicle: saline 96 % of control and 107 % of control | dose: 200.0 mg/kg/injection, schedule: Q#A X002 (ip), vehicle: Klucel (hydroxypropylcellulose) (HPC) 102 % of control and 106 % of control | dose: 256.0 mg/kg/injection, schedule: Q01DX001 (ip), vehicle: Klucel (hydroxypropylcellulose) (HPC) 122 % of control | dose: 256.0 mg/kg/injection, schedule: Q01DX001 (oral), vehicle: Klucel (hydroxypropylcellulose) (HPC) 101 % of control | dose: 400.0 mg/kg/injection, schedule: Q01DX001 (ip), vehicle: Klucel (hydroxypropylcellulose) (HPC) 105 % of control and 106 % of control | dose: 400.0 mg/kg/injection, schedule: Q#A X002 (ip), vehicle: Klucel (hydroxypropylcellulose) (HPC) 111 % of control | dose: 512.0 mg/kg/injection, schedule: Q01DX001 (ip), vehicle: Klucel (hydroxypropylcellulose) (HPC) 96 % of control | dose: 512.0 mg/kg/injection, schedule: Q01DX001 (oral), vehicle: Klucel (hydroxypropylcellulose) (HPC) 100 % of control | dose: 1024.0 mg/kg/injection, schedule: Q01DX001 (ip), vehicle: Klucel (hydroxypropylcellulose) (HPC) 96 % of control | dose: 1024.0 mg/kg/injection, schedule: Q01DX001 (oral), vehicle: Klucel (hydroxypropylcellulose) (HPC) 100 % of control

CN(N=O)C(=O)N[C@@H](C=O)[C@@H](O)[C@H](O)[C@H](O)CO
inactive: dose: 14.5 mg/kg/injection, schedule: Q## X006 (ip), vehicle: saline 109 % of control | dose: 16.0 mg/kg/injection, schedule: Q01DX001 (ip), vehicle: saline 98 % of control and 109 % of control | dose: 16.0 mg/kg/injection, schedule: Q01DX005 (ip), vehicle: other 113 % of control | dose: 16.0 mg/kg/injection, schedule: Q01DX005 (ip), vehicle: saline 117 % of control | dose: 16.0 mg/kg/injection, schedule: Q#A X002 (ip), vehicle: saline 100 % of control and 108 % of control | dose: 29.0 mg/kg/injection, schedule: Q## X006 (ip), vehicle: saline 111 % of control | dose: 32.0 mg/kg/injection, schedule: Q01DX001 (ip), vehicle: other 105 % of control | dose: 32.0 mg/kg/injection, schedule: Q01DX001 (oral), vehicle: other 116 % of control | dose: 32.0 mg/kg/injection, schedule: Q01DX005 (ip), vehicle: other 120 % of control | dose: 32.0 mg/kg/injection, schedule: Q01DX005 (ip), vehicle: saline 114 % of control | dose: 32.0 mg/kg/injection, schedule: Q01DX005 (oral), vehicle: other 95 % of control | dose: 32.0 mg/kg/injection, schedule: Q01DX005 (oral), vehicle: saline 102 % of control | dose: 32.0 mg/kg/injection, schedule: Q## X006 (ip), vehicle: other 112 % of control | dose: 32.0 mg/kg/injection, schedule: Q#A X002 (ip), vehicle: saline 104 % of control and 114 % of control | dose: 57.9 mg/kg/injection, schedule: Q## X006 (ip), vehicle: saline 114 % of control | dose: 64.0 mg/kg/injection, schedule: Q01DX001 (oral), vehicle: other 102 % of control | dose: 64.0 mg/kg/injection, schedule: Q01DX005 (ip), vehicle: other 110 % of control | dose: 64.0 mg/kg/injection, schedule: Q01DX005 (oral), vehicle: other 103 % of control | dose: 64.0 mg/kg/injection, schedule: Q01DX005 (oral), vehicle: saline 101 % of control | dose: 64.0 mg/kg/injection, schedule: Q## X006 (ip), vehicle: other 116 % of control | dose: 64.0 mg/kg/injection, schedule: Q#A X002 (ip), vehicle: saline 89 % of control and 118 % of control | dose: 128.0 mg/kg/injection, schedule: Q01DX001 (oral), vehicle: other 101 % of control | dose: 128.0 mg/kg/injection, schedule: Q01DX005 (oral), vehicle: saline 98 % of control | dose: 128.0 mg/kg/injection, schedule: Q## X006 (ip), vehicle: other 121 % of control | dose: 128.0 mg/kg/injection, schedule: Q#A X002 (ip), vehicle: saline 89 % of control and 113 % of control | dose: 231.7 mg/kg/injection, schedule: Q## X006 (ip), vehicle: saline 119 % of control | dose: 256.0 mg/kg/injection, schedule: Q01DX001 (oral), vehicle: other 113 % of control | dose: 256.0 mg/kg/injection, schedule: Q01DX005 (oral), vehicle: other 93 % of control | dose: 256.0 mg/kg/injection, schedule: Q01DX005 (oral), vehicle: saline 103 % of control | dose: 256.0 mg/kg/injection, schedule: Q#A X002 (ip), vehicle: saline 92 % of control | dose: 512.0 mg/kg/injection, schedule: Q01DX001 (oral), vehicle: other 113 % of control | dose: 512.0 mg/kg/injection, schedule: Q01DX005 (oral), vehicle: saline 113 % of control | dose: 1024.0 mg/kg/injection, schedule: Q01DX001 (oral), vehicle: other 117 % of control

Cc1c2cc[n+](C)cc2c(C)c2c1[nH]c1ccc(O)cc12
inactive: dose: 0.12 mg/kg/injection, schedule: Q01DX005 (ip), vehicle: saline 100 % of control | dose: 0.25 mg/kg/injection, schedule: Q01DX005 (ip), vehicle: saline 101 % of control and 112 % of control | dose: 0.5 mg/kg/injection, schedule: Q01DX005 (ip), vehicle: saline 101 % of control

ClC(Cl)=C(Cl)Cl
inactive: dose: 22.0 mg/kg/injection, schedule: Q01DX005 (ip), vehicle: saline with Tween-80 111 % of control | dose: 45.0 mg/kg/injection, schedule: Q01DX005 (ip), vehicle: saline with Tween-80 90 % of control | dose: 90.0 mg/kg/injection, schedule: Q01DX005 (ip), vehicle: saline with Tween-80 88 % of control and 92 % of control

C[CH2][Ge]1([CH2]C)[CH2]CC2(CCN(CCCN(C)C)C2)C[CH2]1
inactive: dose: 4.0 mg/kg/injection, schedule: Q01DX005 (ip), vehicle: saline 104 % of control | [1] 98 % of control and 101 % of control and 108 % of control

Cc1c2ccncc2c(C)c2c1[nH]c1ccccc12
inactive: [2] 103 % of control
